Reference: patent publication US11512085B2, “Heteroaryl compound having drug activity” (SHANGHAI DUDE MEDICAL TECHNOLOGY CO., LTD, priority 2017, dated 2022)

Tested on: OCI-LY3
Assay: In vitro tumor cell proliferation (CellTiter-Glo), OCI-LY3
Assay type: cell-based
Details: Homo sapiens, OCI-Ly3, 72 h; read-out: Growth IC50
Method: Biological Embodiment 8: Study on Effects of Active Compounds for Inhibiting In Vitro Tumor Cell Proliferation
Promega CellTiter-Glo cell activity detection kit by luminescence (Promega-G7573).
Tumor cell lines were cultured in a 5% of CO2 incubator at 37° C. according to respective culture conditions; and periodic passage was performed, and cells positioned in a logarithmic phase were taken for planking.
3) 90 μL of cell suspension was added into each well of the culture plate, and a culture solution containing no cell was added into blank control;
4) the culture plate was cultured overnight in the 5% of CO2 incubator having relative humidity of 100% at 37° C.
Preparation of a 400× compound storage plate: the compound was diluted from the maximum concentration gradient to the lowest concentration with DMSO. […]
The following steps were performed according to the specification of the Promega CellTiter-Glo cell activity detection kit by luminescence (Promega-G7573). […]
9) the luminescence signal was detected on the 2104 EnVision plate reader.

## C=CC(=O)NN1CCCC(n2nc(-c3ccc(Oc4ccccc4)cc3)c3c(N)ncnc32)C1 (stereo not shown) [Embodiment 6, N-(3-(4-amino-3-(4-phenoxyphenyl)-1H-pyrazolo[3,4-D]pyrimidine-1-yl)-1-piperidyl)-acrylamide]
  IC50: > 10 µM
